Assay [1] deals with P falciparum PF3D/^0087/N9. As to the kind of experiment: In vivo efficacy in a murine model of falciparum-malaria (4-day test). Set-up: species or system Plasmodium falciparum. An excerpt: Biological Experiment 5: In Vivo Efficacy Against P falciparum PF3D/^0087/N9 for the compound No. 6 Described in Example 6 • In vivo activity in a murine model of falciparum-Malaria Angulo-Barturen I, Jimenez-Diaz M B, Mulet T, Rullas J, Herreros E, et al. (2008) A Murine Model of falciparum-Malaria by In Vivo Selection of Competent Strains in Non-Myelodepleted Mice Engrafted with Human Erythrocytes. PLoS ONE 3(5): e2252. doi:10.1371/journal.pone.0002252.
This study measures the therapeutic efficacy of compound no. 6 against Plasmodium falciparum growing in peripheral blood of NODscidIL2Rynull mice engrafted with human erythrocytes. The antimalarial efficacy of compound no. 6 is assessed using a “4-day test”.
The parameters of efficacy estimated in the study are a) the dose of compound no. 6 in mg·kg-1 that reduces parasitemia at day 7 after infection by 90% with respect to vehicle-treated mice (parameter denoted as ED90) and b) the estimated average daily exposure in whole blood of compound no. 6 necessary to reduce P. falciparum parasitemia in peripheral blood at day 7 after infection by 90% with respect to vehicle-treated mice (parameter used to measure the potency of the compound and denoted as AUCED90).

The test system of assay [2] is Chloroquine/Pyrimethamine resistant Plasmodium falciparum K1. As to the kind of experiment: In vitro sensitivity assay: Plasmodium falciparum by 3H-hypoxanthine incorporation. It is filed as cell-based. As to conditions: K1, Erythrocyte, read-out: IC50 K1 in vitro. How it is done:
Biological Test 1: In Vitro Sensitivity Assays: Plasmodium falciparum by ^3H-Hypoxanthine Incorporation.
The strain used for this assay is the Chloroquine/Pyrimethamine resistant Plasmodium falciparum K1 and drugs such as Chloroquine (10 mg/mL stock; start concentration 1000 ng/mL) and Artemisinine (Qinghaosu) (5 mg/mL stock; start concentration 10 ng/mL) were used as standards. Human red blood cells were used as host cells and the activity was measured using a ^3H-hypoxanthine incorporation assay.
Into a Costar™ 96-well microtitre plates, 100 μL of medium (RPMI 1640 without hypoxanthine 10.44 g/L, HEPES 5.94 g/L, Albumax® 5 g/L, Neomycin 10 mL/L, NaHCO3 2.1 g/L) were added to the wells of row containing drugs available from stock solutions of 10 mg/mL in DMSO (compounds were kept at −20° C. Since DMSO is toxic, care had to be taken not to exceed a final concentration of 0.5% DMSO). Then 100 μL of medium were added at rt to all wells of the plate. By means of a 12-well multi-pipette serial drug dilutions were prepared. A serial dilution factor of 1:2 is thus obtained. One row of wells without drugs served as controls. Next 100 μL of medium+washed human red blood cells A+(RBC) was added to the last 4 wells of the first row; these columns serve as background controls (that may be caused by 3H-hypoxanthine incorporation into RBC without the parasite). Into the remaining wells, 100 μL of medium+RBC+P. falciparum mix was added. The plates were placed for 48 h into a chamber at 37° C. gassed with a 4% CO2, 3% O2, 93% N2 mix. Finally 50 μL of medium+3H-hypoxanthine [(500 μL ^3H-hypoxanthine stock+500 μL EtOH+49 mL medium (0.5 μCi)] was added to each well and the plates were put back at 37° C. for 24 h into the chamber and gassed with a 4% CO2, 3% O2, 93% N2 mix. The plates were then read using the Cell Harvester and the data were transferred into a graphic program (Excel) and are evaluated to determine the IC50 by linear interpolation.

The subject of assay [3] is P. falciparum strain NF54. As to the kind of experiment: P. falciparum growth assay ([3H] hypoxanthine incorporation). It is filed as cell-based. As to conditions: Plasmodium falciparum, NF54, read-out: IC50 NF54. How it is done:
• Cultivation of P. falciparum:
P. falciparum strain NF54 was obtained from the Research and Reference Reagent
Resource Center (MR4) (Manassas, Va.). The two strains were maintained in vitro by a modification of the method of Trager and Jensen. Cultures were maintained in A positive (A+) human erythrocytes suspended at 5% hematocrit in complete medium. 5 g albumax II (Gibco-Invitrogen, Cat No#11021037), 2.5 mg gentamicin (Sigma Aldrich), 25 mM HEPES (Invitrogen), 5 mg hypoxanthine (Sigma), and 1 L of RPMI 1640 (Invitrogen, Cat No#11875085). Cultures were grown in 100 mm petri-dishes (BD Falcon) at a volume of 15 mL and were kept in a standard gas environment of 4% CO2 and 3% 02 at temperature 37° C. in a tri-gas incubator (Cat#3131, Thermo Scientific Forma Series II Water Jacketed). Parasite growth and morphology were observed daily using thin smears at 100× (oil immersion) magnification following staining with Geimsa stain. • P. falciparum growth assay:
The protocol assesses the compound efficacy against the growth of P. falciparum in-vitro.
Parasite growth was detected in assay by the traditional [3H] hypoxanthine incorporation assay as previously described by Desjardins and colleagues (Antimicrob. Agents Chemother., 16(6), 710, 1979). To perform the [3H] hypoxanthine incorporation assay, the new antimalarial agents were serially diluted 1:1 into hypoxanthine-free complete medium to a final volume of 100 μL (final antimalarial agent concentration range, 10,000 nM to 4.8 nM may change in special case) in 96 well sterile cell culture plates. […] All cultures used in the study are albumax II adopted. The microtiter plates were incubated in chamber in a standard gas environment at 37° C. for 72 h. After 48 h of incubation and prior to addition of 50 μL (0.5 μCi/well) 3H-Hypoxanthine (specific activity, 20 Ci/mmol, Conc. 1.0 mCi/ml; American Radiolabeled Chemicals, Inc., St. Louis, Mo.), culture growth was assessed by making the smears that ensures the culture has grown in % p and assay plate is further incubated for 24 h. Following the incubation period, the plates were harvested with a FilterMate cell harvester (Perkin Elmer) onto unifilter-96 GF/B plates, washed with distilled water to remove excess radiochemical and plates were kept for drying 37° C. overnight or 60° C. for 1 h. 50 μL of Microscint scintillation cocktail (Microscint-High Efficiency LSC-Cocktail; Perkin Elmer) added in the unifilter-96 GF/B plates and kept for 15-20 min. The plates were counted in a Top Count NXT microplate scintillation and luminescence counter (Perkin Elmer). The mean values for [3H]hypoxanthine incorporation in parasitized control and non-parasitized control erythrocytes were calculated.
Assay data were analyzed using Graph pad prism ver.5 software. A variable sigmoid dose response curve is plotted keeping log concentrations at X-axis and % inhibition at Y-axis.

For assay [4], the system named is Plasmodium berghei, (GFP ANKA strain). In words: Plasmodium berghei acute in vivo model. The note with it: NMRI mice, 50 mg/kg/day i.p., 4 daily doses; for decrease of parasitemia: day 4, relative to untreated control group; for Mean Survival Days: survival monitored up to 30 days. How it is done: Biological Test 2: Plasmodium berghei Acute In Vivo Model.
For this study Plasmodium berghei, (GFP ANKA strain) was used as parasite strain and drugs such as Chloroquine (Sigma C6628) Artemisinin (Sigma 36, 159-3) were used as positive controls.
For the assay a donor mouse with approximately 30% parasitaemia, heparinised blood (containing 50 μL of 200 μ/mL Heparin) was taken and diluted in physiological saline to 10^8 parasitized erythrocytes per mL. An aliquot (0.2 mL) of this suspension was injected intravenously (i.v.) into experimental groups of 3 mice (NMRI mice, females, 20-22 g), and a control group of 3 mice. The mice were studied in a standard macrolon cages type II at 22° C. and 60-70% relative humidity, and were fed with special pellets (PAB45—NAFAG 9009, Provimi Kliba A G, CH-4303 Kaiseraugst, Switzerland), water ad libitum. 4 hours post-infection—the experimental groups were treated with a single dose i.p of the tested drug. The dosage was 50 mg/kg/day and the drug concentration (DMSO 10%) was adjusted so that 0.1 mL/10 g was injected. In a similar manner after 24, 48 and 72 hours post-infection—the experimental groups were treated with a single daily dose i.p. Finally 24 hours after the last drug treatment, 1 μL tail blood was taken and dissolved in 1 mL PBS buffer. Parasitaemia was determined with a FACScan (Becton Dickinson) by counting 100'000 red blood cells. The difference between the mean value of the control group and those of the experimental groups was then calculated and expressed as a percent relative to the control group (=activity). The survival of the animals was monitored up to 30 days and mice surviving for 30 days were checked for parasitaemia and subsequently euthanised. A compound is considered curative if the animal survives to day 30 post-infection with no detectable parasites. The result is expressed as 1) reduction of parasitaemia on day 4 in % as compared to the untreated control group, and 2) mean survival of the group.
B. Franke-Fayard et al., Mol. Biochem. Parasitol., 137(1),23-33, 2004

The values below come from US9908863B2, “Piperidinylcarbazoles” (Merck Patent GmbH, priority 2013, dated 2018).

Counter-ions that a name gives are not always drawn.

As to `O[C@H]1CNCC[C@@H]1n1c2ccc(Cl)cc2c2cc(Cl)ccc21` [Compound 6, (3S,4S)-4-(3,6-Dichloro-carbazol-9-yl)-piperidin-3-ol hydrochloride salt], in assay [1] (dose reducing parasitemia at day 7 after infection by 90% vs vehicle-treated mice, NODscidIL2Rynull mice engrafted with human erythrocytes), the ED90 worked out at 22.5 mg/kg. Also, the AUCED90 in assay [1] (estimated average daily exposure in whole blood needed to reduce parasitemia at day 7 by 90% vs vehicle-treated mice) was 28.5 μg · h · ml^−1 · day^−1. The IC50 in assay [2] came out at 10 nM; in assay [3], 40.2 nM. For the same compound, in assay [4], the decrease of parasitemia stood at 99.8%. For the same compound, the “Mean Survival Days” value in assay [4] is recorded as 30 days.

Turning to `O[C@H]1CNCC[C@@H]1n1c2ccc(Cl)cc2c2cc(Cl)ccc21` (racemic) [Compound 5, Trans-4-(3,6-Dichloro-carbazol-9-yl)-piperidin-3-ol hydrochloride salt], the values for the IC50 in assay [2] and in assay [3] were 9 nM and 109 nM, respectively.

`O[C@H]1CNCC[C@@H]1n1c2ccc(F)cc2c2cc(F)ccc21` [Compound 9, (3S,4S)-4-(3,6-Difluoro-carbazol-9-yl)-piperidin-3-ol hydrochloride salt]: the IC50 in assay [2] turned out to be 16 nM; in assay [3], 307 nM.

Turning to `O[C@@H]1CNCC[C@H]1n1c2ccc(Cl)cc2c2cc(Cl)ccc21` [Compound 7, (3R,4R)-4-(3,6-Dichloro-carbazol-9-yl)-piperidin-3-ol hydrochloride salt], the IC50 in assay [2] worked out at 9 nM. Further, the IC50 in assay [3] was found to be 41.2 nM. In assay [4], the decrease of parasitemia turned out to be 100% and the “Mean Survival Days” value is 30 days.

One may read the IC50 as the concentration at which inhibition is half-maximal.
